Values of other authors as cited in patent US20220193441A1, “ENERGY AUGMENTATION STRUCTURES, EMITTERS OR COLLECTORS, FOR USE IN NON-INVASIVE IN-SITU PHOTOBIOMODULATION” (IMMUNOLIGHT, LLC, priority 2019, published 2022).
Each block holds one molecule with its values, some of them ahead of it.

What was measured:
tumors = conditions: in vivo
[1] = test system: epidermal growth factor receptor; conditions: higher UVA light doses, with versus without trimethyl psoralen
[2] = clinical use

Compound: CC(=O)[O-].CC(=O)[O-].CCc1c(CC)c2cc3nc(cnc4cc(OCCOCCOCCOC)c(OCCOCCOCCOC)cc4ncc4nc(cc1[n-]2)C(CCCO)=C4C)C(C)=C3CCCO.O.[Lu+3] [Lutetium texaphryin, Motexafin lutetium]
selectivity for tumors compared to normal tissues (tumors): one of the greatest reported selectivities for tumors

Compound: Cc1cc2cc3c(C)cc(=O)oc3c(C)c2o1 [trimethyl psoralen]
inhibition of 125I-EGF specific binding [1]: higher efficiency

duration of skin photosensitivity [2]: approximately 2 weeks
Compound: Oc1cccc(-c2c3nc(c(-c4cccc(O)c4)c4ccc([nH]4)c(-c4cccc(O)c4)c4nc(c(-c5cccc(O)c5)c5ccc2[nH]5)CC4)C=C3)c1 [Foscan, Tetra (m-hydroxyphenyl) chlorin]
